Data: US20170056561A1, “COMPOSITIONS FOR THE TREATMENT OF JOINTS” (CorMedix Inc., priority 2015, published 2017)

Tests used:
[1] = test system: Stapylococcus aureus strain SA 113; test: Solution exposure of HA/taurolidine hydrogels to living cultures (bacteria kill); format: cell-based; details: 20 μl early phase culture in 980 μl formulation
Description: (§1) The following evaluations were done to assess the performance of gels comprising hyaluronic acid and taurolidine. Solution exposure of the hyaluronic acid/taurolidine hydrogels, immersed in early phase concentrations of 2 test microorganisms, were conducted. Additionally, the physical properties of the hydrogels were assessed to determine their shear/thixotropic properties.
(§2) In this study, two strains of bacteria, Pseudomonas aeruginosa (PAO1) and Stapylococcus aureus strain SA 113), were evaluated for total kill of each of the strains after 4 and 24 hours of exposure. 20 μl of early phase culture of each strain was placed in 980 μl of each hyaluronic acid/taurolidine formulation. Samples of remaining bacteria concentrations were determined for the samples after 4 and 24 hours of exposure. Four controls were prepared, one control without hyaluronic acid and three other controls with different molecular weights of hyaluronic acid (low, medium and high MW) (all without taurolidine). These were compared against the same 3 different molecular weights of hyaluronic acid which contained taurolidine, with each hyaluronic acid MW containing target concentrations of 1.5, 3, or 6% taurolidine by weight in the hyaluronic acid hydrogel matrix (Table 1). […] These were also evaluated against a known antimicrobial, gentamicin.

[2] = test system: Pseudomonas aeruginosa (PAO1); test: as above; format: cell-based; details: 20 μl early phase culture in 980 μl formulation
Description: as §1, §2

Gentamicin
Remaining bacteria concentrations SA113 (4 hr) ([1]; 4 hour exposure): 3.77E+02
Remaining bacteria concentrations SA113 (24 hr) ([1]; 24 hour exposure): 8.33E+00
Remaining bacteria concentrations PA01 (4 hr) ([2]; 4 hour exposure): 0.00E+00
Remaining bacteria concentrations PA01 (24 hr) ([2]; 24 hour exposure): 0.00E+00
